# Data as given in patent EP4671239A1, “ARYL SUBSTITUENT-CONTAINING DEGRADATION AGENT FOR CDK12/13, PREPARATION METHOD THEREFOR, AND PHARMACEUTICAL COMPOSITION AND USE THEREOF” (Shanghai Institute of Organic Chemistry, Chinese Academy of …, priority 2023, dated 2024).
# Where two headings read alike, the source gives them in different places.
# How the values were obtained:
# CDK12 and CDK13 proteins [1] = assay: Degradation activity on CDK12/13 in MDA-MB-231 cells (Western Blot); type: cell-based; details: for degradation of CDK12 and CDK13 protein levels in cells: 0.1µM or 0.3µM, 15 h, WB (FIG. 1); for degradation of CDK12 and CDK13 proteins: 1 µM, 15 hours
# Method: (§1) Experimental methods: The cell line MDA-MB-231 was purchased from the American Type Culture Collection (ATCC). Conventional Western Blot was used for detection, as follows: MDA-MB-231 cells were seeded at a density of 2 x 10^5/mL in a 12-well plate, with 1 mL per well, and cultured overnight in an incubator in an adherent manner. Then, a certain concentration of compounds was added to act for 15 h. The cells were lysed with a lysis buffer, and protein samples were collected. An appropriate amount of the sample was taken for SDS-PAGE electrophoresis. After electrophoresis, the protein was transferred to a polyvinylidene fluoride (PVDF) membrane using a wet electro-transfer system. The PVDF membrane after electro-transfer was cut into several required strips, which were then placed in a blocking solution (5% skim milk powder diluted in TBS containing 0.1% Tween 20) and blocked at room temperature for 1.5 h. A primary antibody solution was prepared by diluting a primary antibody against the corresponding target protein in TBS containing 0.1% Tween 20 according to the dilution requirements of different antibodies, such as 1:1000 (CST), 1:3000 (Proteintech, Bethyl), and 1:200 (Santacruz). The blocked membrane was placed in the corresponding primary antibody solution and incubated at 4°C for 12-14 h. Then, the cells were washed three times with TBS containing 0.1% Tween 20, each time for 5 min. After washing, the membrane was placed in a secondary antibody solution (horseradish peroxidase-labeled goat anti-rabbit IgG, diluted at 1:2000 in TBS containing 0.1% Tween 20) and reacted at room temperature for 2 h. After washing the membrane three times as above, the membrane was developed with StarSignal plus reagent (GenStar®) and Omni-ECL reagent (Yazyme®), and photographed with Amersham Imager 800 system.
# [2] = Pharmacokinetics and bioavailability test in rats (Example 57); type: in vivo; details: SD rats; for AUC(0-inf) / Tmax / MRT last / MRT inf: rat, plasma; for MRT last: read-out: MRT(0-t); for MRT inf: read-out: MRT(0-∞)
# Method: (§2) Pharmacokinetics and bioavailability tests in rats. SD rats were given a single oral (10 mg/kg), intravenous (2.5 mg/kg) and intraperitoneal (10 mg/kg) dose, followed by animal blood sample collection at appropriate time points. Heparin was added for anticoagulation, and the samples were centrifuged at 8000 rpm for 6 min. The supernatant was collected and stored at -20°C for HPLC-MS analysis. The blood samples underwent protein precipitation with acetonitrile at 12 000 rpm * 10 min, and the supernatant was used for HPCL-MS analysis. The data underwent parameter fitting with DAS2.0, to obtain compartmental model and non-compartmental model parameters, respectively. The oral bioavailability of the compounds was calculated based on the area under the plasma concentration-time curve (AUC) data. […] Table 1. Pharmacokinetic experimental results of compound zlc-4-93
# CDK12 and CDK13 proteins [3] = assay: Degradation activity on CDK12/13 in MDA-MB-231 cells (Western Blot); type: cell-based; details: WB (FIG. 2A)
# [4] = tested on: triple negative breast cancer cells MDA-MB-231; assay: Proliferation-inhibiting activity on MDA-MB-231 cells (Cell Counting Kit-8); type: cell-based; details: Homo sapiens, 120 h; MDA-MB-231 cell line, 5 days, cck-8 (FIG. 3)
# Method: The cell proliferation-inhibiting activity of the compounds was determined using Cell Counting Kit-8 Cell Viability Assay (Selleck.cn). The cells were seeded into a 384-well plate (CORNING® PS 3701) containing the corresponding culture medium and incubated in an incubator at 37°C with 5% CO2. After overnight incubation, a high-concentration stock solution of each compound to be tested was prepared; the compound was added to the 384-well plate according to a concentration gradient using an Echo® 650 Liquid Handler (LABCYTE®). After administration, the cell plate was placed in an incubator at 37°C with 5% CO2 and incubated for 5 days. Then, 5 µL of cck-8 reagent was added to each well of the 384-well plate using MULTIDROP® (Thermo Scientific™), and the plate was returned to the incubator for incubation for 1.5-2 h. After incubation, the plate was removed and centrifuged to remove bubbles. The absorbance of each well at 450 nm and 650 nm was obtained using EnVision® (PerkinElmer®). GraphPad Prism software (GraphPad Software Inc.) was used to process and analyze the data.
# Cyclin K = assay: Degradation of partner protein Cyclin K in MDA-MB-231 cells (Western Blot); type: cell-based; details: for time dependence of degradation of Cyclin K: WB (FIG. 2); for degradation of Cyclin K protein: after 15 hours
# Method: as §1
# [5] = Pharmacokinetics and bioavailability test in rats (Example 60); type: in vivo; details: SD rats
# Method: as §2, with “2.” for “1.”, “compounds YJZ9069 and YJZ1102” for “compound zlc-4-93”
# CDK12 and CDK13 proteins [6] = assay: Degradation activity on CDK12/13 in 22RV1 cells (Western Blot); type: cell-based; details: 22RV1 cells
# Method: Experimental methods: The cell line, 22RV1 cell line was purchased from the American Type Culture Collection (ATCC). Conventional Western Blot was used for detection as follows: 22RV1 cells were seeded in a certain number in a 12-well plate, and cultured overnight in an incubator in an adherent manner. […] The cells were lysed with a lysis buffer, and samples were collected. Then, an appropriate amount of the samples was taken for SDS-PAGE electrophoresis. After electrophoresis, the proteins were transferred to nitrocellulose membranes using a semi-dry electro-transfer system. The nitrocellulose membrane was placed in a blocking solution (5% skim milk powder diluted in TBS containing 0.1% Tween 20) and blocked at room temperature for 2 h. The membranes were then placed in a primary antibody solution (1: 1000 diluted in TBS containing 0.1% Tween 20), respectively, and incubated at 4°C overnight. The cells were washed three times with TBS containing 0.1% Tween 20, each time for 15 min. The membrane was placed in a secondary antibody solution (horseradish peroxidase-labeled goat anti-rabbit IgG, diluted at 1:1000 in TBS containing 0.1% Tween 20) and reacted at room temperature for 1 h. After washing the membrane three times as above, the membrane was developed with ECL plus reagent and photographed using Amersham Imager 600 system.
# [7] = tested on: phosphorylation of serine at position 2 (phoSer2) of the C-terminal domain of RNA polymeraseII (RNA Pol II); assay: Phosphorylation of Ser2 of the RNA Pol II C-terminal domain in 22RV1 cells (Western Blot); type: cell-based; details: different concentrations (FIG. 4B)
# Method: Experimental methods: The cell line, 22RV1 cell line was purchased from the American Type Culture Collection (ATCC). Conventional Western Blot was used for detection as follows: 22RV1 cells were seeded in a certain number in a 12-well plate, and cultured overnight in an incubator in an adherent manner. Then, a certain concentration of compounds was added to act for 6 hours. The cells were lysed with a lysis buffer, and samples were collected. Then, an appropriate amount of the samples was taken for SDS-PAGE electrophoresis. After electrophoresis, the proteins were transferred to nitrocellulose membranes using a semi-dry electro-transfer system. The nitrocellulose membrane was placed in a blocking solution (5% skim milk powder diluted in TBS containing 0.1% Tween 20) and blocked at room temperature for 2 h. The membranes were then placed in a primary antibody solution (1: 1000 diluted in TBS containing 0.1% Tween 20), respectively, and incubated at 4°C overnight. The cells were washed three times with TBS containing 0.1% Tween 20, each time for 15 min. The membrane was placed in a secondary antibody solution (horseradish peroxidase-labeled goat anti-rabbit IgG, diluted at 1:1000 in TBS containing 0.1% Tween 20) and reacted at room temperature for 1 h. […]
smiles,measurement,setting,value
N#Cc1ccc(N[C@H]2CC[C@H](N(C(=O)NCc3ccccc3)c3ccc(N4CCN(C5CCN(c6cc7c(cc6F)C(=O)N(C6CCC(=O)NC6=O)C7=O)CC5)CC4)cc3)CC2)nc1 (stereo partly drawn) [ZLC4-91],degradation of CDK12 and CDK13 protein levels in cells,CDK12 and CDK13 proteins [1],effectively degrade
same,degradation of CDK12 and CDK13 proteins,CDK12 and CDK13 proteins [1],almost completely degraded
same,F,"[2]; Oral 10 mg/kg, bioavailability calculated from AUC",46.80%
same,oral pharmacokinetic properties,[2]; summary in words of Table 1,excellent
same,AUC(0-inf),"[2]; iv, i.v. 2.5 mg/kg",6880 ng·h/mL
same,Tmax,"[2]; iv, i.v. 2.5 mg/kg",0.08 h
same,MRT last,"[2]; iv, i.v. 2.5 mg/kg",2.2 h
same,MRT inf,"[2]; iv, i.v. 2.5 mg/kg",2.32 h
same,AUC(0-inf),[2]; Oral 10 mg/kg,12800 ng·h/mL
same,Tmax,[2]; Oral 10 mg/kg,4.67 h
same,MRT last,[2]; Oral 10 mg/kg,6.09 h
same,MRT inf,[2]; Oral 10 mg/kg,6.21 h
same,time dependence of degradation of CDK12 and CDK13 proteins,CDK12 and CDK13 proteins [3],time-dependent manner
same,IC50,[4],622 nM
same,time dependence of degradation of Cyclin K,Cyclin K,time-dependent degradation effect
same,degradation of Cyclin K protein,Cyclin K,almost completely degraded
N#Cc1ccc(N[C@H]2CC[C@H](N(C(=O)NCc3ccccc3)c3ccc(N4CCC(N5CCN(c6ccc7c(c6)C(=O)N(C6CCC(=O)NC6=O)C7=O)CC5)CC4)cc3)CC2)nc1 (stereo partly drawn) [ZLC5-11],degradation of CDK12 and CDK13 protein levels in cells,CDK12 and CDK13 proteins [1],effectively degrade
same,degradation of CDK12 and CDK13 proteins,CDK12 and CDK13 proteins [1],almost completely degraded
same,time dependence of degradation of CDK12 and CDK13 proteins,CDK12 and CDK13 proteins [3],time-dependent manner
same,time dependence of degradation of Cyclin K,Cyclin K,time-dependent degradation effect
same,degradation of Cyclin K protein,Cyclin K,almost completely degraded
O=C1CCC(N2C(=O)c3cccc(OCC(=O)N4CCN(c5ccc(N(C(=O)NCc6ccccc6)[C@H]6CC[C@H](Nc7ncc8ccccc8n7)CC6)cc5)CC4)c3C2=O)C(=O)N1 (stereo partly drawn) [YJZ9069],F,"[5]; PO 10 mg/kg, bioavailability calculated from AUC",5.04%
same,Cmax,"[5]; rat, in vivo, IV 2.5 mg/kg",3510 ng/mL
same,Tmax,"[5]; rat, in vivo, IV 2.5 mg/kg",0.08 h
same,clearance,"[5]; rat, in vivo, IV 2.5 mg/kg",14.1 mL/min/kg
same,half-life,"[5]; rat, in vivo, IV 2.5 mg/kg",4.39 h
same,Cmax,"[5]; rat, in vivo, PO 10 mg/kg",121 ng/mL
same,Tmax,"[5]; rat, in vivo, PO 10 mg/kg",4 h
same,degradation of CDK12 and CDK13 proteins,"CDK12 and CDK13 proteins [6]; 100 nM, 6 h (FIG. 5)",almost completely degrade
same,degradation of CDK12 and CDK13 proteins,"CDK12 and CDK13 proteins [6]; 0.5 µM, 15 hours",almost completely degraded
same,degradation of CDK12 and CDK13 protein levels in cells,"CDK12 and CDK13 proteins [6]; 500 nM, 6 hours, WB (FIG. 4)",effectively degrade
same,dose dependence of degradation of CDK12 and CDK13 proteins,"CDK12 and CDK13 proteins [6]; different concentrations, 6 h (FIG. 4B, FIG. 5)",dose-dependent manner
same,phosphorylation of serine at position 2 (phoSer2) of RNA Pol II CTD,[7],inhibited in a dose-dependent manner
